Key:
[1] = target: T1, PARG (Homo sapiens, UniProt Q86W56); assay: Inhibition of PARG enzymatic assay (TR-FRET enzymatic IC50 assay); format: biochemical; set-up: purchased Peak Proteins; settings: hPARG 250 pM, biotinylated-PARylated PARP substrate 30 nM
Method in brief: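 Compound preincubated 1 h with 250 pM His-tagged hPARG, then 30 nM biotinylated PARylated hPARP1 substrate added for 10 min; buffer 50 mM Tris-HCl pH 7.4, EDTA/EGTA, 1 mM DTT, 23° C. TR-FRET read after 1 h with anti-His ULight antibody and streptavidin-europium; inhibition scaled between DMSO and no-enzyme controls.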

[2] = test system: HCC1806-XRCC1 KD (knock down) cells; assay: Cellular viability assay (Cell Titer-Glo); format: cell-based; settings: 96 h, HCC1806-shXRCC1 cells, 4 days of incubation, read-out: PARGi cell viability
Method: HCC1806-XRCC1 KD (knock down) cells were plated at 2000 cells/well in 96-well white plates with clear flat bottom. After 24 hours, the compounds of the disclosure were added starting at 30 μM for a 9-point dose response curve at 1:3 dilution. The compounds of the disclosure were added by Tecan digital dispenser excluding the outermost wells of the plate. All treatments were done in duplicates. After 4 days of incubation, 50 ul of Cell Titer-Glo (Promega) was added per well. After incubation with the reagent for 15 minutes, luminescence was read using a plate reader (TECAN). Average values of DMSO treated wells in a plate was calculated. All data points were normalized to that of the average DMSO value. The % of control for each sample compared to DMSO treated control samples. Curves are fit as % of control vs. log [compound concentration] using a 4 parameter inhibition model (Levenberg-Marquardt algorithm):
Fit=(A+((B−A)/(1+((C/x)^D))))

[3] = target: T1, PARG; assay: Inhibition of PARG cellular assay (PAR foci in HeLa cells after MMS); format: cell-based; set-up: endogenous in cells; host or cells: HeLa; settings: compound 1 h then MMS 1 h
Method in brief: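 HeLa cells pretreated with compound for 1 h, then given MMS for a further 1 h, fixed and immunostained for PAR polymer. High-content imaging quantified nuclear PAR foci intensity (PAR Foci IC50) and percent cells with foci signal >1.3 (PAR % positive IC50).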

T1 sequence (Q86W56 whole entry): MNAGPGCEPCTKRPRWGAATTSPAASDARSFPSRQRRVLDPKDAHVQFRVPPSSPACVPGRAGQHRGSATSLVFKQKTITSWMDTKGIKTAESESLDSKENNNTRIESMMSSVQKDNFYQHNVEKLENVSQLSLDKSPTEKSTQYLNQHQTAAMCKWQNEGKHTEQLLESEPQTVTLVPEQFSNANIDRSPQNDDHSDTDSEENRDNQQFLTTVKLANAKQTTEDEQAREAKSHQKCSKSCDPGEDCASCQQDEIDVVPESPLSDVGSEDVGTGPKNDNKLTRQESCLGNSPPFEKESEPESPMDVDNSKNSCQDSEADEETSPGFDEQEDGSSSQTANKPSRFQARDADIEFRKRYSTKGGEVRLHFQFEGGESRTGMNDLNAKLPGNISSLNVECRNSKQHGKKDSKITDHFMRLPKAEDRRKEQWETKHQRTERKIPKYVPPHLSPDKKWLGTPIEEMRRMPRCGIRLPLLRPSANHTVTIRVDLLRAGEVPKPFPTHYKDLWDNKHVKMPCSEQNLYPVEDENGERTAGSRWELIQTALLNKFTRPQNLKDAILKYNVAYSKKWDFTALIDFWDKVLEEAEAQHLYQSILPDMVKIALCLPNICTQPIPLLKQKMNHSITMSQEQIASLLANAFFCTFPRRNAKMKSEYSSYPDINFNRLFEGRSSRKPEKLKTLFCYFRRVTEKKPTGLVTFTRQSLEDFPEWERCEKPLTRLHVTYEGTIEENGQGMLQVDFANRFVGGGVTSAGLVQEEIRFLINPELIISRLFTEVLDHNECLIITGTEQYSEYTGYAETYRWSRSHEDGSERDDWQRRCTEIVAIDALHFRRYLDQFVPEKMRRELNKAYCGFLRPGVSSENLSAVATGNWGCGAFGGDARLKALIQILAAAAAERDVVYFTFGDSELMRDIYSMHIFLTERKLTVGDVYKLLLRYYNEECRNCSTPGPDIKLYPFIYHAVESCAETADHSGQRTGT

Row | Structure (SMILES) | IC50 [1] [µM] | IC50 [2] [µM] | IC50 [3] [µM]
1 | N#CC1(NS(=O)(=O)c2cc(N3CCC(O)CC3)c3cnn(-c4nnc(C(F)F)s4)c3c2)CC1 [Example 27, 1-[({1-[5-(difluoromethyl)(1,3,4-thiadiazol-2-yl)]-4-(4-hydroxypiperidyl)-1H-indazol-6-yl}sulfonyl)amino]cyclopropanecarbonitrile] | ≤ 0.1 | 1 to 10 | 0.3 to 1
2 | CC(C)C(=O)N1CCN(c2cc(S(=O)(=O)NC3(C#N)CC3)cc3c2ccn3-c2nnc(C(F)F)s2)CC1 [Example 28, 1-[({1-[5-(difluoromethyl)(1,3,4-thiadiazol-2-yl)]-4-[4-(2-methylpropanoyl)piperazinyl]indol-6-yl}sulfonyl)amino]cyclopropanecarbonitrile] | ≤ 0.1 | < 1 | ≤ 0.1
3 | CCN(C)C(=O)N1CCN(c2cc(S(=O)(=O)NC3(C#N)CC3)cc3c2cnn3-c2nnc(C(F)F)s2)CC1 [Example 32, [4-(1-[5-(difluoromethyl)(1,3,4-thiadiazol-2-yl)]-6-{[(cyanocyclopropyl)amino]sulfonyl}(1H-indazol-4-yl))piperazinyl]-N-ethyl-N-methylcarboxamide] | ≤ 0.1 | < 1 | ≤ 0.1
4 | N#CC1(NS(=O)(=O)c2cc(N3CCN(C(=O)N4CCC4)CC3)c3cnn(-c4nnc(C(F)F)s4)c3c2)CC1 [Example 33, 1-[({4-[4-(azetidinylcarbonyl)piperazinyl]-1-[5-(difluoromethyl)(1,3,4-thiadiazol-2-yl)]-1H-indazol-6-yl}sulfonyl)amino]cyclopropanecarbonitrile] | ≤ 0.1 | 1 to 10 | ≤ 0.1
5 | C[C@@H]1CN(c2cc(S(=O)(=O)NC3(C#N)CC3)cc3c2cnn3-c2nnc(C(F)F)s2)CCN1C(=O)N(C)C [Example 35, [(2R)-4-(1-[5-(difluoromethyl)(1,3,4-thiadiazol-2-yl)]-6-{[(cyanocyclopropyl)amino]sulfonyl}(1H-indazol-4-yl))-2-methylpiperazinyl]-N,N-dimethylcarboxamide] | ≤ 0.1 | < 1 | ≤ 0.1
6 | CC(C)C(=O)N1CCN(c2cc(S(=O)(=O)NC3(C#N)CC3)cc3c2cnn3-c2nnc(C(F)F)s2)CC1 [Example 38, 1-[({1-[5-(difluoromethyl)(1,3,4-thiadiazol-2-yl)]-4-[4-(2-methylpropanoyl)piperazinyl]-1H-indazol-6-yl}sulfonyl)amino]cyclopropanecarbonitrile] | ≤ 0.1 | < 1 | ≤ 0.1
7 | CC(C)(C)C(=O)N1CCN(c2cc(S(=O)(=O)NC3(C#N)CC3)cc3c2cnn3-c2nnc(C(F)F)s2)CC1 [Example 39, 1-[({1-[5-(difluoromethyl)(1,3,4-thiadiazol-2-yl)]-4-[4-(2,2-dimethylpropanoyl)piperazinyl]-1H-indazol-6-yl}sulfonyl)amino]cyclopropanecarbonitrile] | ≤ 0.1 | < 1 | ≤ 0.1
8 | CNC(=O)C1CCN(c2cc(S(=O)(=O)NC3(C#N)CC3)cc3c2cnn3-c2nnc(C(F)F)s2)CC1 [Example 40, [1-(1-[5-(difluoromethyl)(1,3,4-thiadiazol-2-yl)]-6-{[(cyanocyclopropyl)amino]sulfonyl}(1H-indazol-4-yl))(4-piperidyl)]-N-methylcarboxamide] | ≤ 0.1 | 10 to 20 | 1 to 10
9 | N#CC1(NS(=O)(=O)c2cc(N3CCC4(CCO4)CC3)c3cnn(-c4nnc(C(F)F)s4)c3c2)CC1 [Example 41, 1-[({1-[5-(difluoromethyl)(1,3,4-thiadiazol-2-yl)]-4-(1-oxa-7-azaspiro[3.5]non-7-yl)-1H-indazol-6-yl}sulfonyl)amino]cyclopropanecarbonitrile] | 0.1 to 0.3 | 1 to 10 | 0.3 to 1
10 | CN(C)C(=O)N1CCN(c2cc(S(=O)(=O)NC3(C#N)CC3)cc3c2cnn3-c2nnc(C(F)F)s2)CC1 [Example 43, [4-(1-[5-(difluoromethyl)(1,3,4-thiadiazol-2-yl)]-6-{[(cyanocyclopropyl)amino]sulfonyl}(1H-indazol-4-yl))piperazinyl]-N,N-dimethylcarboxamide] | ≤ 0.1 | < 1 | ≤ 0.1
11 | N#CC1(NS(=O)(=O)c2cc(N3CCC4(CCCO4)CC3)c3cnn(-c4nnc(C(F)F)s4)c3c2)CC1 [Example 44, 1-[({1-[5-(difluoromethyl)(1,3,4-thiadiazol-2-yl)]-4-(1-oxa-8-azaspiro[4.5]dec-8-yl)-1H-indazol-6-yl}sulfonyl)amino]cyclopropanecarbonitrile] | 0.3 to 1 | 1 to 10 | 1 to 10

The next lines start with the values.

Row | IC50 [1] [µM] | IC50 [2] [µM] | IC50 [3] [µM] | Structure (SMILES)
12 | 0.1 to 0.3 | 20 to 30 | 0.3 to 1 | N#CC1(NS(=O)(=O)c2cc(N3CC4(COC4)C3)c3cnn(-c4nnc(C(F)F)s4)c3c2)CC1 [Example 45, 1-[({1-[5-(difluoromethyl)(1,3,4-thiadiazol-2-yl)]-4-(6-oxa-2-azaspiro[3.3]hept-2-yl)-1H-indazol-6-yl}sulfonyl)amino]cyclopropanecarbonitrile]
13 | 0.1 to 0.3 | 1 to 10 | 1 to 10 | CN1CCC2(CCN(c3cc(S(=O)(=O)NC4(C#N)CC4)cc4c3cnn4-c3nnc(C(F)F)s3)CC2)C1 [Example 46, 1-[({1-[5-(difluoromethyl)(1,3,4-thiadiazol-2-yl)]-4-(2-methyl-2,8-diazaspiro[4.5]dec-8-yl)-1H-indazol-6-yl}sulfonyl)amino]cyclopropanecarbonitrile]
14 | ≤ 0.1 | 1 to 10 | 0.3 to 1 | N#CC1(NS(=O)(=O)c2cc(N3CCC(CO)CC3)c3cnn(-c4nnc(C(F)F)s4)c3c2)CC1 [Example 47, 1-[({1-[5-(difluoromethyl)(1,3,4-thiadiazol-2-yl)]-4-[4-(hydroxymethyl)piperidyl]-1H-indazol-6-yl}sulfonyl)amino]cyclopropanecarbonitrile]
15 | 0.1 to 0.3 | 1 to 10 | 0.3 to 1 | N#CC1(NS(=O)(=O)c2cc(N3C[C@H]4COC[C@H]4C3)c3cnn(-c4nnc(C(F)F)s4)c3c2)CC1 [Example 48, 1-[({4-((1S,5R)-7-oxa-3-azabicyclo[3.3.0]oct-3-yl)-1-[5-(difluoromethyl)(1,3,4-thiadiazol-2-yl)]-1H-indazol-6-yl}sulfonyl)amino]cyclopropanecarbonitrile]
16 | ≤ 0.1 | 1 to 10 | 0.3 to 1 | CC(=O)N1CCN(c2cc(S(=O)(=O)NC3(C#N)CC3)cc3c2cnn3-c2nnc(C(F)F)s2)CC1 [Example 50, 1-[({4-(4-acetylpiperazinyl)-1-[5-(difluoromethyl)(1,3,4-thiadiazol-2-yl)]-1H-indazol-6-yl}sulfonyl)amino]cyclopropanecarbonitrile]
17 | 0.1 to 0.3 | 10 to 20 | 0.3 to 1 | CN(C)C(=O)C1CCN(c2cc(S(=O)(=O)NC3(C#N)CC3)cc3c2cnn3-c2nnc(C(F)F)s2)CC1 [Example 51, [1-(1-[5-(difluoromethyl)(1,3,4-thiadiazol-2-yl)]-6-{[(cyanocyclopropyl)amino]sulfonyl}(1H-indazol-4-yl))(4-piperidyl)]-N,N-dimethylcarboxamide]
18 | ≤ 0.1 | 1 to 10 | 0.3 to 1 | N#CC1(NS(=O)(=O)c2cc(N3CCS(=O)(=O)CC3)c3cnn(-c4nnc(C(F)F)s4)c3c2)CC1 [Example 52, N-(1-cyanocyclopropyl)-1-(5-(difluoromethyl)-1,3,4-thiadiazol-2-yl)-4-(1,1-dioxidothiomorpholino)-1H-indazole-6-sulfonamide]
